Reference: ChEMBL document CHEMBL1156613, “Potent and selective pyrazole-based inhibitors of B-Raf kinase” (Bioorg Med Chem Lett, 2008)
≈ marks a conversion by molar mass, not a printed value. Calls of active or inactive are those of the source. The calls are words filed in the database; no cut-off is given here.

Legend:
[1] = target: Serine/threonine-protein kinase B-raf (Homo sapiens, UniProt P15056); test: Inhibition of human recombinant B-Raf by fluorescence anisotropy
[2] = target: Mitogen-activated protein kinase; ERK1/ERK2 (Homo sapiens, UniProt P27361+P28482); test: Inhibition of ERK1/2 phosphorylation in human MALME3M cells; assay type: cell-based
[3] = Aqueous solubility at pH 6.5 by shake-flask method; assay type: physicochemical; settings: aqueous medium
Mus musculus = test: Inhibition of ERK phosphorylation in human LOX tumor xenografted mouse at 25 mg/kg, po after 1 hrs by Western blot method; assay type: functional, organism-based; parameters: dose 25 mg/kg

Serine/threonine-protein kinase B-raf, sequence (P15056 whole entry): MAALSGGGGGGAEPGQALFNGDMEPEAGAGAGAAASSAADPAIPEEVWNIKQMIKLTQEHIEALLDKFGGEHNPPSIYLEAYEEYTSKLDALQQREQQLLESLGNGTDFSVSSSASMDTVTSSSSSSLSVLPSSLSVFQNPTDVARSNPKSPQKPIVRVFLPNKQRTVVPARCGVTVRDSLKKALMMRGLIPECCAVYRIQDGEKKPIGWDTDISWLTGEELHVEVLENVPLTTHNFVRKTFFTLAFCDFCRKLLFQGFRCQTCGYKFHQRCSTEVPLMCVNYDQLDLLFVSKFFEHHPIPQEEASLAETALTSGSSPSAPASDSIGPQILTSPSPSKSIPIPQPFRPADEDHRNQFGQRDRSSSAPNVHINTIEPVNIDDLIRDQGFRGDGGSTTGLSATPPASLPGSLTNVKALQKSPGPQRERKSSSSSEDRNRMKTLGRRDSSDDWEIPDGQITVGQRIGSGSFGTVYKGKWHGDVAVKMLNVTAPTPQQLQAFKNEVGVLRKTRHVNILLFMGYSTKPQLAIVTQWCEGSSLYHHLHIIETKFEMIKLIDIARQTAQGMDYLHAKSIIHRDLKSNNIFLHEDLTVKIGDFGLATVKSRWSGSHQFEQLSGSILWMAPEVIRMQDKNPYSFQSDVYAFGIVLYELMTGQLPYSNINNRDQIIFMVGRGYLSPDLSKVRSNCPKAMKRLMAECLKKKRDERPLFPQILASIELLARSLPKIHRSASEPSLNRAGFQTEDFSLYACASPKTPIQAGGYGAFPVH

SMILES | IC50 [1] [nM] | IC50 [2] [nM] | solubility thermodynamic [3] [µg/mL] | Activity (Mus musculus)
Cn1cc(-c2ccc3c(c2)CC/C3=N\O)c(-c2cccnc2)n1 | 434 |  |  | 
OCC(CO)n1cc(-c2ccc3c(c2)CC/C3=N\O)c(-c2ccncc2)n1 | 0.56 | 171 |  | 
Cn1cc(-c2ccc3c(c2)CCN/C3=N/O)c(-c2ccncc2)n1 | 16 | 10000 |  | 
Cc1c[nH]nc1-c1ccc(-c2cn(C)nc2-c2ccncc2)cc1 | 4.4 | 18000 |  | 
OCC(O)Cn1cc(-c2ccc3c(c2)CC/C3=N\O)c(-c2ccncc2)n1 (stereo unspecified) | 0.87 | 22 |  | 
O/N=C1\CCc2cc(-c3cn(C4CCCC4)nc3-c3ccncc3)ccc21 | 3.46 | 57 |  | 
Cn1cc(-c2ccc3c(c2)CN/C3=N/O)c(-c2ccncc2)n1 | < 2 | 56 | 590 (≈ 1930 µM) | 
Cn1cc(-c2ccc3c(c2)CC/C3=N\O)c(-c2ccc3c(cnn3C)c2)n1 | 970 |  |  | 
O/N=C1\CCc2cc(-c3cn(C4CCNCC4)nc3-c3ccncc3)ccc21 | 0.03 | 9 | 52 (≈ 139 µM) | inactive
NCCCn1cc(-c2ccc3c(c2)CC/C3=N\O)c(-c2ccncc2)n1 | 0.39 | 20 |  | 
Cn1cc(-c2ccc3c(c2)CC/C3=N\O)c(-c2ccnc(N)c2)n1 | 2.1 | 1000 |  | 
O/N=C1\CCc2cc(-c3cn([C@@H]4CCC[C@H](O)C4)nc3-c3ccncc3)ccc21 (relative stereo) | 0.04 | 7 | 3 (≈ 7.72 µM) | Active
O/N=C1\CCc2cc(-c3cn([C@H]4CCC[C@H]4O)nc3-c3ccncc3)ccc21 (relative stereo) | 3.91 | 245 |  | 
O/N=C1\CCc2cc(-c3cn(CC4CCCNC4)nc3-c3ccncc3)ccc21 (stereo unspecified) | 0.85 | 154 |  | 
O/N=C1\CCc2cc(-c3cn([C@H]4CCC[C@@H]4O)nc3-c3ccncc3)ccc21 (relative stereo) | 0.33 | 37 |  | 
Cn1cc(-c2ccc3c(c2)Cc2c[nH]nc2-3)c(-c2ccncc2)n1 | 1.5 | 1900 |  | 
CN(C)CCCn1cc(-c2ccc3c(c2)CC/C3=N\O)c(-c2ccncc2)n1 | 0.47 | 122 |  | 
Cn1cc(-c2ccc(/C(N)=N\O)cc2)c(-c2ccncc2)n1 | 18.4 | 20000 |  | 
O/N=C1\CCc2cc(-c3cn(C4CCOCC4)nc3-c3ccncc3)ccc21 | 0.22 | 48 |  | 

SMILES | IC50 [1] [nM] | IC50 [2] [nM] | solubility thermodynamic [3] [µg/mL] | Activity (Mus musculus)
COCCn1cc(-c2ccc3c(c2)CC/C3=N\O)c(-c2ccncc2)n1 | 1.16 | 569 |  | 
Cn1cc(-c2ccc3c(c2)CC/C3=N\O)c(-c2ccncc2)n1 | 0.02 | 33 |  | 
OCCCn1cc(-c2ccc3c(c2)CC/C3=N\O)c(-c2ccncc2)n1 | 0.05 | 26 |  | 
Cn1cc(-c2ccc3c(c2)CC/C3=N\O)c(-c2ccnc(O)c2)n1 | 2.9 | 800 |  | 
O/N=C1\CCc2cc(-c3cn([C@@H]4CCC[C@@H](O)C4)nc3-c3ccncc3)ccc21 (relative stereo) | 0.09 | 17 |  | 
Cn1cc(-c2ccc3c(c2)C(=O)NC3)c(-c2ccncc2)n1 | 68.4 |  |  | 
Cn1cc(-c2ccc(-c3cc[nH]n3)cc2)c(-c2ccncc2)n1 | 68.4 |  |  | 
OCCn1cc(-c2ccc3c(c2)CC/C3=N\O)c(-c2ccncc2)n1 |  |  | 76 (≈ 227 µM) | Active
CNC1CCCC(n2cc(-c3ccc4c(c3)CC/C4=N\O)c(-c3ccncc3)n2)C1 (stereo unspecified) | 0.23 | 18 |  | 
Cn1cc(-c2ccc3c(c2)CC/C3=N\O)c(-c2cnco2)n1 | 4.1 | 2400 |  | 
Cn1cc(-c2ccc3c(c2)CC/C3=N\O)c(-c2ccncn2)n1 | 3.1 | 1500 |  | 
Cn1cc(-c2ccc3cn[nH]c3c2)c(-c2ccncc2)n1 | 70 |  |  | 
O/N=C1\CCc2cc(-c3c[nH]nc3-c3ccncc3)ccc21 | 0.15 | 53 |  | 
O/N=C1\CCc2cc(-c3cn(CC4CCNCC4)nc3-c3ccncc3)ccc21 | 1.2 | 332 |  | 
NCCn1cc(-c2ccc3c(c2)CC/C3=N\O)c(-c2ccncc2)n1 | 2.4 | 119 |  | 
CCn1cc(-c2ccc3c(c2)CC/C3=N\O)c(-c2ccncc2)n1 | 0.57 | 18 |  | 
CN1CCC(n2cc(-c3ccc4c(c3)CC/C4=N\O)c(-c3ccncc3)n2)CC1 | 0.34 | 10 |  | 
CN(C)CCn1cc(-c2ccc3c(c2)CC/C3=N\O)c(-c2ccncc2)n1 | 4.02 | 607 |  | 
Cn1ncc(-c2ccc3c(c2)CC/C3=N\O)c1-c1ccncc1 | 0.48 | 165 |  | 
